The record followed here is patent US9212182B2, “Bicyclic sulfonamide compounds as sodium channel inhibitors” (AMGEN INC., priority 2013, dated 2015).

One series addresses Nav 1.5 (Homo sapiens (Human), UniProt Q14524). Kind of series: in-vitro Nav 1.5 PX (IC50). To be noted: read-out: Nav 1.5 PX IC50.
The target in the next series is Nav 1.7 (Homo sapiens (Human), UniProt Q15858). In words: in-vitro Nav 1.7 PX (IC50). Format: cell-based.
[1] abbreviates: in-vitro Nav 1.5 PX data (PatchXpress).

Read-outs that look alike come from different tables or passages of the source.

Chain of Nav 1.5 (Q14524 whole entry): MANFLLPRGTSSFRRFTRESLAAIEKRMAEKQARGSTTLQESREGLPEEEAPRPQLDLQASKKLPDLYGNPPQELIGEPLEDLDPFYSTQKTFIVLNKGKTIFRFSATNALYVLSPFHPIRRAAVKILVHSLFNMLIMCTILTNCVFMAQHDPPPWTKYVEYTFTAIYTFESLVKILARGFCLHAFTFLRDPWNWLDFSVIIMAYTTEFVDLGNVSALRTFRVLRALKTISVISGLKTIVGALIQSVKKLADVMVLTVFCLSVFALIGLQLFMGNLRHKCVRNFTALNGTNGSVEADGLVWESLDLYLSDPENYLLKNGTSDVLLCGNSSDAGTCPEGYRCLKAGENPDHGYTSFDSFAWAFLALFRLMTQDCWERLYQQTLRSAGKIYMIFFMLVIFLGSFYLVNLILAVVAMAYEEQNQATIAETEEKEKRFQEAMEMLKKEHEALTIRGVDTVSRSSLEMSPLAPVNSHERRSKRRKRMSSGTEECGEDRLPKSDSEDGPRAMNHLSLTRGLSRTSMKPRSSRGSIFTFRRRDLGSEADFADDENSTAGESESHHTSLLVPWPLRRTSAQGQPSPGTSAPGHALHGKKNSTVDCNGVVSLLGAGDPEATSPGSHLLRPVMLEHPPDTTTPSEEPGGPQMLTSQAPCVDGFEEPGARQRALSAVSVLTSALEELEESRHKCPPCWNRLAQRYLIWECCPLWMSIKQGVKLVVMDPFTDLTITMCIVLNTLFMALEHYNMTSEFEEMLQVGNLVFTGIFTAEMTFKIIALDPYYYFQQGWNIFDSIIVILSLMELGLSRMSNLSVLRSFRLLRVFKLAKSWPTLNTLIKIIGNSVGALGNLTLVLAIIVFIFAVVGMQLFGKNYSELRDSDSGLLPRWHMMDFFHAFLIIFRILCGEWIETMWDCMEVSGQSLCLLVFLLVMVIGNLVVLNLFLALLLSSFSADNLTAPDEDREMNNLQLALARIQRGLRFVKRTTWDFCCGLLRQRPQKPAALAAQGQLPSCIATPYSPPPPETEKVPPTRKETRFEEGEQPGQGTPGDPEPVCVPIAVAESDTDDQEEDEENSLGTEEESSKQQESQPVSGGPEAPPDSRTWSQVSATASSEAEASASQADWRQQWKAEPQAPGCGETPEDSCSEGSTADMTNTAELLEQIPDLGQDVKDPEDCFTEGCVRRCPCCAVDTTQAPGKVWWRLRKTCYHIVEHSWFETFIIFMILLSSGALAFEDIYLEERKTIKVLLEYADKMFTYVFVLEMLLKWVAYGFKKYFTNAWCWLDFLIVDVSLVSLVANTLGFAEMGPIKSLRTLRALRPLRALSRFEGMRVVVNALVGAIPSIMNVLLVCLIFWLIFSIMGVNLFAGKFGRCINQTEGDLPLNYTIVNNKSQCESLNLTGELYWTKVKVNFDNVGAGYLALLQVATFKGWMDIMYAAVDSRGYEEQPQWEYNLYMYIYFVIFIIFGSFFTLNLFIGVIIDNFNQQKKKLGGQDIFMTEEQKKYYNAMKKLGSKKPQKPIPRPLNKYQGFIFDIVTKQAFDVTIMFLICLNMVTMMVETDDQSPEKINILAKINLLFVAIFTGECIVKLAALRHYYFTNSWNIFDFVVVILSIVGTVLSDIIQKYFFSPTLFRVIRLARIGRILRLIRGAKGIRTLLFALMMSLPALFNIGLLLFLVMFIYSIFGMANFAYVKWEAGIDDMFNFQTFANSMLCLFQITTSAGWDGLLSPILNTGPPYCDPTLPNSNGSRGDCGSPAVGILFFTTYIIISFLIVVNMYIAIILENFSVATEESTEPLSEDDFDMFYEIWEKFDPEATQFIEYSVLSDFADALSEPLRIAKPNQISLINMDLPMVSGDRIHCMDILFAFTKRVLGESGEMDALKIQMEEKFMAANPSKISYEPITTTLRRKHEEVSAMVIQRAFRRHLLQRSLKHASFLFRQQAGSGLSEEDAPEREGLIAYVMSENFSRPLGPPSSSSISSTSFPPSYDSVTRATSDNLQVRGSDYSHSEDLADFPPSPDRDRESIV
Chain of Nav 1.7 (Q15858 whole entry): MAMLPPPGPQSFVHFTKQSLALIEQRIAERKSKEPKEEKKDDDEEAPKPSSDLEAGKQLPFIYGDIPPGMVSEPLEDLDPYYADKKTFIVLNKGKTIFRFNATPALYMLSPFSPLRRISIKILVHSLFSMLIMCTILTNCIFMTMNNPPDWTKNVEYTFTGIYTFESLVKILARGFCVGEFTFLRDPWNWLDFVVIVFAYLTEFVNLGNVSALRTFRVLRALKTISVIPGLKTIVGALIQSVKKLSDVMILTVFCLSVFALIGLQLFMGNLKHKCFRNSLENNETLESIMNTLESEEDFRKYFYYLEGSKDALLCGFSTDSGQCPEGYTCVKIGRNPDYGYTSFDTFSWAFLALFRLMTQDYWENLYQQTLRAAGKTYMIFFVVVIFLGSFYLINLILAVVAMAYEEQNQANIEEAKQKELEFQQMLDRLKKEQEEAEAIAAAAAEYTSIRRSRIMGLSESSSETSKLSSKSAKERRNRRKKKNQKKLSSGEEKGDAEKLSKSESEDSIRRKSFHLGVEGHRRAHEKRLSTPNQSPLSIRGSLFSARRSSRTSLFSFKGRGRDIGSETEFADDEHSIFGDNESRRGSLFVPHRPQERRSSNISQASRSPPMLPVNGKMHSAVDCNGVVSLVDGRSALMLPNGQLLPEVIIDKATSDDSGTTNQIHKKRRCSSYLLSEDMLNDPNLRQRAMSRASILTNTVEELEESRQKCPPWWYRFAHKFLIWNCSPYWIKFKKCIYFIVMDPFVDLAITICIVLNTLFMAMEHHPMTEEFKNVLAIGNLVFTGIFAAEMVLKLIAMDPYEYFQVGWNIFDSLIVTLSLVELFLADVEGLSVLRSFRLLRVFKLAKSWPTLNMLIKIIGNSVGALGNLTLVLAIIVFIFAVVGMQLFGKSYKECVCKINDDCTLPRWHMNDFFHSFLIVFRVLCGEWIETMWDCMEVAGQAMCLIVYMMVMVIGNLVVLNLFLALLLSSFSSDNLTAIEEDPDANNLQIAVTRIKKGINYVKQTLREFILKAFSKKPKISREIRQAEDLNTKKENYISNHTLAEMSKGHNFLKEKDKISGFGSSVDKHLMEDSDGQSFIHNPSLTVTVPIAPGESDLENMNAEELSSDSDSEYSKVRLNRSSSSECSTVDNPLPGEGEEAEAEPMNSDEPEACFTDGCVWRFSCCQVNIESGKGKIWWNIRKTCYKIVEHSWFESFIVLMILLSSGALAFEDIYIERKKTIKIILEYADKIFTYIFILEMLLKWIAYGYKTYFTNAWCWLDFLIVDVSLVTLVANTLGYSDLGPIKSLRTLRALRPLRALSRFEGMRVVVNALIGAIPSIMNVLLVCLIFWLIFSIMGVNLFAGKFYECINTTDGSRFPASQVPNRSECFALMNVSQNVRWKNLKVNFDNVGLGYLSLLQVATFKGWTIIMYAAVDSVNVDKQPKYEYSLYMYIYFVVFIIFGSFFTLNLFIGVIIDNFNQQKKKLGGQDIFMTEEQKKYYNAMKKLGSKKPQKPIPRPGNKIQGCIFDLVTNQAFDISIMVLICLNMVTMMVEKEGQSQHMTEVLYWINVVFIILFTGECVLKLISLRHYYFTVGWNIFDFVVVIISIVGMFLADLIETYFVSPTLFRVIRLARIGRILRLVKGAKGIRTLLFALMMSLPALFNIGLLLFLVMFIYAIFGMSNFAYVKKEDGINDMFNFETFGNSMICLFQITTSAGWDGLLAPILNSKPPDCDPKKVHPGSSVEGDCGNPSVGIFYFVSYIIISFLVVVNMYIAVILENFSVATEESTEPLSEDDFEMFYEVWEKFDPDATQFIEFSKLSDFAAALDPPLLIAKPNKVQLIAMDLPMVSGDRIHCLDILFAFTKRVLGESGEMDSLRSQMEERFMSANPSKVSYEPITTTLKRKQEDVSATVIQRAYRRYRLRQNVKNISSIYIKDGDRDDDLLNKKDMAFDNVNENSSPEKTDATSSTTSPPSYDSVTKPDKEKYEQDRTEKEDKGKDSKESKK

By IC50 is commonly meant the concentration needed to halve the response being measured. Take `COc1cc(-c2cccc(F)c2)c(Cl)cc1-n1c(=O)ccc2cc(S(=O)(=O)Nc3nncs3)ccc21` (atropisomer, axis not shown; (P)) [Example 353, (P)-1-(2-chloro-3′-fluoro-5-methoxy-[1,1′-biphenyl]-4-yl)-2-oxo-N-(1,3,4-THIADIAZOL-2-yl)-1,2-dihydroquinoline-6-sulfonamide]: the IC50 was more than 30000 nM on Nav 1.5 and 12 nM on Nav 1.7. On to `COc1cc(-c2cc(F)cc(Cl)c2)c(Cl)cc1-n1c(=O)ccc2cc(S(=O)(=O)Nc3ccon3)ccc21` (atropisomer, axis not shown; (P)) [Example 461, (P)-1-(2,3′-dichloro-5′-fluoro-5-methoxy-[1,1′-biphenyl]-4-yl)-N-(isoxazol-3-yl)-2-oxo-1,2-dihydroquinoline-6-sulfonamide], for which the concentration for half-maximal inhibition (IC50) on Nav 1.5 was more than 30000 nM; at Nav 1.7 it was 6 nM.

On to `COc1cc(-c2cccc(F)c2)c(Cl)cc1-n1c(=O)ccc2cc(S(=O)(=O)Nc3ccncn3)ccc21` (atropisomer, axis not shown; (P)) [Example 465, (P)-1-(2-chloro-3′-fluoro-5-methoxy-[1,1′-biphenyl]-4-yl)-2-oxo-N-(pyrimidin-4-yl)-1,2-dihydroquinoline-6-sulfonamide], for which the concentration for half-maximal inhibition (IC50) at Nav 1.5 was more than 30000 nM. `COc1cc(-c2cccc(F)c2)c(Cl)cc1-n1c(=O)ccc2cc(S(=O)(=O)Nc3cccnn3)ccc21` (atropisomer, axis not shown; (P)) [Example 467, (P)-1-(2-chloro-3′-fluoro-5-methoxy-[1,1′-biphenyl]-4-yl)-2-oxo-N-(pyridazin-3-yl)-1,2-dihydroquinoline-6-sulfonamide]: the IC50 was more than 30000 nM on Nav 1.5 and 13 nM against Nav 1.7.

As to `COc1cc(-c2cc(F)cc(Cl)c2)c(F)cc1-n1c(=O)ccc2cc(S(=O)(=O)Nc3ccon3)ccc21` (atropisomer, axis not shown; (P)) [Example 477, (P)-1-(3′-chloro-2,5′-difluoro-5-methoxy-4-biphenylyl)-N-3-isoxazolyl-2-oxo-1,2-dihydro-6-quinolinesulfonamide], the IC50 is more than 30000 nM at Nav 1.5 and 7 nM at Nav 1.7. Take `COc1cc(-c2cccc(C(F)(F)F)c2)c(Cl)cc1-n1c(=O)ccc2cc(S(=O)(=O)Nc3ccon3)ccc21` (atropisomer, axis not shown; (P)) [Example 533, (P)-1-(2-chloro-5-methoxy-3′-(trifluoromethyl)-[1,1′-biphenyl]-4-yl)-N-(isoxazol-3-yl)-2-oxo-1,2-dihydroquinoline-6-sulfonamide]: the IC50 is more than 30000 nM on Nav 1.5 and 4 nM at Nav 1.7. Turning to `COc1cc(-c2cc(F)cnc2OC)ccc1-n1c(=O)ccc2cc(S(=O)(=O)Nc3ccon3)ccc21` (atropisomer, axis not shown; (P)) [Example 581, (P)-1-(4-(5-fluoro-2-methoxy-3-pyridinyl)-2-methoxyphenyl)-N-3-isoxazolyl-2-oxo-1,2-dihydro-6-quinolinesulfonamide], the IC50 is more than 10000 nM on Nav 1.5 and 102 nM against Nav 1.7. Regarding `COc1cc(-c2cc(OC)c(-n3c(=O)ccc4cc(S(=O)(=O)Nc5cccnn5)ccc43)cc2F)ccc1Cl` (atropisomer, axis not shown; (P)) [Example 628, (P)-1-(4′-chloro-2-fluoro-3′,5-dimethoxy-4-biphenylyl)-2-oxo-N-3-pyridazinyl-1,2-dihydro-6-quinolinesulfonamide], on Nav 1.5 (setting [1]), the half-maximal inhibitory concentration (IC50) was more than 10000 nM. Still for that read-out and setting: the same measure for `COc1cc(-c2cc(OC)c(-n3c(=O)ccc4cc(S(=O)(=O)Nc5ncccn5)ccc43)cc2F)ccc1Cl` (atropisomer, axis not shown; (P)) [Example 685, (P)-1-(4′-chloro-2-fluoro-3′,5-dimethoxy-4-biphenylyl)-2-oxo-N-2-pyrimidinyl-1,2-dihydro-6-quinolinesulfonamide]: more than 10000 nM. With `COc1cc(-c2cc(OC)c(-n3c(=O)ccc4cc(S(=O)(=O)Nc5ccon5)ccc43)cc2F)ccc1C` [Example 698, 1-(2-fluoro-3′,5-dimethoxy-4′-methyl-4-biphenylyl)-N-3-isoxazolyl-2-oxo-1,2-dihydro-6-quinolinesulfonamide], the concentration for half-maximal inhibition (IC50) at Nav 1.5 (in-vitro Nav 1.5 PX data) is more than 10000 nM; against Nav 1.7 (in-vitro Nav 1.7 PX data), 14 nM. On the same counts, the results for `COc1cc(Cl)cc(-c2cc(OC)c(-n3c(=O)ccc4cc(S(=O)(=O)Nc5ncccn5)ccc43)cc2F)c1` [Example 924, 1-(3′-chloro-2-fluoro-5,5′-dimethoxy-4-biphenylyl)-2-oxo-N-2-pyrimidinyl-1,2-dihydro-6-quinolinesulfonamide] are more than 10000 nM and 14 nM. On the same counts, the results for `COc1cc(-c2ccc(F)c(C)c2)c(F)cc1-n1c(=O)ccc2cc(S(=O)(=O)Nc3ccon3)c(F)cc21` [Example 981, 1-(2,4′-difluoro-5-methoxy-3′-methyl-4-biphenylyl)-7-fluoro-N-3-isoxazolyl-2-oxo-1,2-dihydro-6-quinolinesulfonamide] are 496 nM and 14 nM.

In the case of `COc1cc(-c2ccc(Cl)c(C)c2)c(F)cc1-n1c(=O)ccc2cc(S(=O)(=O)Nc3ncns3)ccc21` [Example 1075, 1-(4′-chloro-2-fluoro-5-methoxy-3′-methyl-4-biphenylyl)-2-oxo-N-1,2,4-thiadiazol-5-yl-1,2-dihydro-6-quinolinesulfonamide], the IC50 was more than 10000 nM at Nav 1.5 (in-vitro Nav 1.5 PX data) and 4 nM on Nav 1.7 (in-vitro Nav 1.7 PX data). In the case of `COc1nc(O[C@H]2CCCC[C@H]2C)c(Cl)cc1-n1c(=O)ccc2cc(S(=O)(=O)Nc3ccon3)ccc21` [Example 1224, 1-(5-chloro-2-methoxy-6-(((1S,2R)-2-methylcyclohexyl)oxy)-3-pyridinyl)-N-3-isoxazolyl-2-oxo-1,2-dihydro-6-quinolinesulfonamide], inhibition on Nav 1.7 was half-maximal at 88 nM (IC50). Regarding `COc1nc(Oc2cc(F)ccc2F)c(Cl)cc1-n1c(=O)ccc2cc(S(=O)(=O)Nc3ccon3)ccc21` [Example 1225, 1-(5-chloro-6-(2,5-difluorophenoxy)-2-methoxy-3-pyridinyl)-N-3-isoxazolyl-2-oxo-1,2-dihydro-6-quinolinesulfonamide], at Nav 1.7, the midpoint of inhibition, the IC50, lay at 846 nM.

On Nav 1.7, `COc1nc(Oc2cccc(Cl)c2C)c(Cl)cc1-n1c(=O)ccc2cc(S(=O)(=O)Nc3ccon3)ccc21` [Example 1226, 1-(5-chloro-6-(3-chloro-2-methylphenoxy)-2-methoxy-3-pyridinyl)-N-3-isoxazolyl-2-oxo-1,2-dihydro-6-quinolinesulfonamide] yielded an IC50 of 316 nM. Same read-out and setting: with `COc1nc(N(C)C2CCCC2)c(Cl)cc1-n1c(=O)ccc2cc(S(=O)(=O)Nc3ccon3)ccc21` [Example 1231, 1-(5-chloro-6-(cyclopentyl(methyl)amino)-2-methoxy-3-pyridinyl)-N-3-isoxazolyl-2-oxo-1,2-dihydro-6-quinolinesulfonamide] the figure was 115 nM. The same measure, in the same setting: the same measure for `COc1nc(NC[C@H]2CCC(C)(C)O2)c(Cl)cc1-n1c(=O)ccc2cc(S(=O)(=O)Nc3ccon3)ccc21` [Example 1232, 1-(5-chloro-6-((((2R)-5,5-dimethyltetrahydro-2-furanyl)methyl)amino)-2-methoxy-3-pyridinyl)-N-3-isoxazolyl-2-oxo-1,2-dihydro-6-quinolinesulfonamide, 1-(5-chloro-6-((((2S)-5,5-dimethyltetrahydro-2-furanyl)methyl)amino)-2-methoxy-3-pyridinyl)-N-3-isoxazolyl-2-oxo-1,2-dihydro-6-quinolinesulfonamide]: 2940 nM; for `COc1nc(NCC2(C)CCCC2)c(Cl)cc1-n1c(=O)ccc2cc(S(=O)(=O)Nc3ccon3)ccc21` [Example 1236, 1-(5-chloro-2-methoxy-6-(((1-methylcyclopentyl)methyl)amino)-3-pyridinyl)-N-3-isoxazolyl-2-oxo-1,2-dihydro-6-quinolinesulfonamide]: 507 nM.
